Laboratory results as given in PubChem BioAssay (NCI).
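Method: 48-hour compound exposure of cells in 96-well plates, five concentrations, linear interpolation of endpoints. Here, GI50 denotes the concentration required for 50% inhibition of growth. TGI: total growth inhibition.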

How the values were obtained:
Assay in all cases: NCI anticancer screen, dose series, 48 h
[1] = test system: SN12C renal
[2] = test system: CCRF-CEM leukemia
[3] = test system: LOX IMVI melanoma
[4] = test system: SR leukemia
[5] = test system: A549 NSCLC
[6] = test system: RXF 393 renal
[7] = test system: MOLT-4 leukemia
[8] = test system: PC-3 prostate
[9] = test system: HS 578T breast
[10] = test system: DU-145 prostate

## Cc1nc(Nc2ccc(Cl)cc2)sc1C(=O)Nc1cccc2c(=O)[nH][nH]c(=O)c12
[1]
  TGI: > 100 µM
[2]
  TGI: 79.5 µM
[3]
  TGI: 33 µM
[4]
  TGI: 64.8 µM
[5]
  TGI: > 100 µM
[6]
  TGI: 69.2 µM
[7]
  TGI: 50.4 µM

## Nc1ccc(C(=O)N/C(=C\c2ccc3c(c2)OCO3)c2nc3ccccc3s2)cc1
[1]
  TGI: 25.6 µM
[2]
  TGI: 7.28 µM
[4]
  TGI: 53.4 µM
[5]
  TGI: 31 µM
[6]
  TGI: 27.9 µM

## COC(OC)c1cccnc1C
[1]
  TGI: > 100 µM
[2]
  TGI: > 100 µM
[3]
  TGI: > 100 µM
[4]
  TGI: > 100 µM
[5]
  TGI: > 100 µM
[6]
  TGI: > 100 µM
[7]
  TGI: > 100 µM

## Fc1ccc(-c2ncn(C3CCNCC3)c2-c2ccnc(Oc3ccc(Cl)cc3)n2)cc1
[1]
  GI50: 3.67 µM
  TGI: 7.17 µM
[8]
  GI50: 6.31 µM
  TGI: > 15.9 µM
[3]
  GI50: 4.16 µM
  TGI: 8.29 µM
[9]
  GI50: 2.58 µM
  TGI: > 11.3 µM
[5]
  GI50: 5.23 µM
  TGI: 12.8 µM
[10]
  GI50: 6.37 µM
  TGI: > 15.8 µM
[6]
  GI50: 2.56 µM
  TGI: 5.91 µM
[7]
  GI50: 5.18 µM
  TGI: 12.9 µM

## Nc1ccccc1SC(/C=C/NNC1=NC(c2ccccc2)C(c2ccccc2)=NN1)c1ccccc1 (stereo unspecified)
[1]
  TGI: 31.5 µM
[2]
  TGI: 7.94 µM
[3]
  TGI: 27.1 µM
[5]
  TGI: 33.4 µM
[6]
  TGI: 27.1 µM
[7]
  TGI: 15.7 µM

## CCOC(=O)c1sc(NC(=O)COc2ccc(/C=C3\CCc4cc(OC)ccc4C3=O)cc2)nc1C
[1]
  GI50: 4.66 µM
  TGI: 21 µM
[8]
  GI50: 10.2 µM
  TGI: > 57.3 µM
[3]
  GI50: 1.31 µM
  TGI: 18.8 µM
[9]
  GI50: 13.4 µM
  TGI: 42.4 µM
[5]
  GI50: 13.1 µM
  TGI: 35.8 µM
[10]
  GI50: 12.8 µM
  TGI: 26.4 µM
[6]
  GI50: 12 µM
  TGI: 29.3 µM
[7]
  GI50: 1.76 µM
  TGI: 15.3 µM

## CCCCS(=O)(=O)c1cc(Nc2ccc(O)c3c2C(=O)c2ccccc2C3=O)ccc1C
[1]
  GI50: > 100 µM
  TGI: > 100 µM
[2]
  GI50: > 100 µM
  TGI: > 100 µM
[8]
  GI50: > 100 µM
  TGI: > 100 µM
[9]
  GI50: 75.5 µM
  TGI: > 100 µM
[5]
  GI50: 1.88 µM
  TGI: > 100 µM
[10]
  GI50: 5.01 µM
  TGI: > 100 µM
[6]
  GI50: 14.6 µM
  TGI: > 100 µM
[7]
  GI50: > 100 µM
  TGI: > 100 µM

## COC(=O)CCC(NC(=S)N/N=C(\C)c1cccs1)C(=O)OC (stereo unspecified)
[1]
  TGI: > 100 µM
[3]
  TGI: > 100 µM
[5]
  TGI: > 100 µM
[6]
  TGI: > 100 µM

## C=C1C(=O)O[C@@H]2C[C@@H](C)[C@@H]3C=CC(=O)[C@@]3(C)[C@@H](OC(=O)CCCC(=O)O[C@H]3[C@@H]4C(=C)C(=O)O[C@@H]4C[C@@H](C)[C@@H]4C=CC(=O)[C@]43C)[C@H]12
[1]
  TGI: 0.0938 µM
[2]
  TGI: 1.45 µM
[8]
  TGI: 0.299 µM
[3]
  TGI: 0.152 µM
[9]
  TGI: 0.433 µM
[5]
  TGI: 6.09 µM
[10]
  TGI: 0.957 µM
[6]
  TGI: 0.047 µM
[7]
  TGI: 0.0634 µM

## CCOC(=O)NN1C(=O)C(=P(c2ccccc2)(c2ccccc2)c2ccccc2)C(C(=O)OC)=C1C
[1]
  TGI: > 100 µM
[2]
  TGI: > 100 µM
[3]
  TGI: > 100 µM
[4]
  TGI: > 100 µM
[5]
  TGI: > 100 µM
[6]
  TGI: > 100 µM
[7]
  TGI: > 100 µM

## Cc1cccc(C=NC23CC4CC(CC(C4)C2)C3)c1
[1]
  TGI: > 100 µM
[2]
  TGI: > 100 µM
[3]
  TGI: > 100 µM
[5]
  TGI: > 100 µM
[6]
  TGI: > 100 µM
[7]
  TGI: > 100 µM

## C/C(=N/NC(N)=S)C(CN1CCOCC1)C(C1=C(O)c2ccccc2OC1)c1ccccc1 (stereo unspecified)
[1]
  TGI: > 100 µM
[2]
  TGI: > 100 µM
[3]
  TGI: > 100 µM
[4]
  TGI: > 100 µM
[5]
  TGI: > 100 µM
[10]
  TGI: > 100 µM
[6]
  TGI: > 100 µM
[7]
  TGI: > 100 µM

## CSC(=S)NCc1cn(C)c2ccccc12
[1]
  GI50: 26.9 µM
  TGI: 80.8 µM
[2]
  GI50: 24.4 µM
  TGI: > 100 µM
[8]
  GI50: 33 µM
  TGI: > 100 µM
[3]
  GI50: 26.5 µM
  TGI: 94.1 µM
[9]
  GI50: 26.3 µM
  TGI: 73.6 µM
[5]
  GI50: 38.1 µM
  TGI: > 100 µM
[10]
  GI50: 29.1 µM
  TGI: > 100 µM
[6]
  GI50: 17.9 µM
  TGI: 59.6 µM

## CCNC(=O)COc1ccc(Cl)c(C)c1
[1]
  TGI: > 100 µM
[2]
  TGI: > 100 µM
[3]
  TGI: > 100 µM
[4]
  TGI: > 100 µM
[5]
  TGI: > 100 µM
[6]
  TGI: > 100 µM
[7]
  TGI: > 100 µM

## O=C1C(=O)N(c2cc(Cl)ccc2Cl)C(=O)C(=O)C1c1nc2ccccc2s1
[1]
  TGI: > 100 µM
[2]
  TGI: > 100 µM
[3]
  TGI: > 100 µM
[5]
  TGI: > 100 µM
[6]
  TGI: > 100 µM

## CN(C)C(=S)/N=c1\ssc(=Nc2ccccc2)n1-c1ccccc1
[1]
  TGI: > 100 µM
[2]
  TGI: > 100 µM
[3]
  TGI: 87 µM
[5]
  TGI: > 100 µM
[6]
  TGI: 44.3 µM
[7]
  TGI: > 100 µM
